These are literature values, as cited in patent US9878049B2, “High drug loading system to co-deliver anticancer drugs and nucleic acids for cancer therapy” (THE UNIVERSITY OF AKRON, priority 2013, dated 2018).

For this data set the following is noted: general statement, no test described.

For `CC[C@@]1(O)C(=O)OCc2c1cc1n(c2=O)Cc2cc3ccccc3nc2-1` [CPT, Camptothecin], the water solubility result was “low water solubility”.
